In paper PMC9578392, “Safety, Tolerability, and Pharmacokinetics of the Novel Antiviral Agent Ensitrelvir Fumaric Acid, a SARS-CoV-2 3CL Protease Inhibitor, in Healthy Adults” (Antimicrobial Agents and Chemotherapy, 2022):
Like-named read-outs stand apart in the source and are kept apart here.

Key:
[1] = Multiple-dose pharmacokinetics (part 2, cohorts F, G, H); format: in vivo, human; settings: for GLS mean ratio (90% CI) of AUC0-τ (white/Japanese) / GLS mean ratio (90% CI) of Cmax (white/Japanese): 375/125 mg, cohort H vs F; for Cmax / AUC / Tmax: human, plasma, oral; for Cmax / AUC: geometric mean (%CV); for AUC: read-out: AUC0-τ; for Tmax: median (min, max)
SARS-CoV-2 = test system: SARS-CoV-2; parameters: method as in PMID 35352927; settings: BALB/cAJcl mice; cited from earlier work
CYP3A = assay: Drug-drug interaction with midazolam (cohort G); settings: ensitrelvir 750/250 mg, from increase in AUC0-inf of midazolam
[2] = 375 mg, F/375/125 mg (Japanese), Day 1, fasted
[3] = 375 mg, H/375/125 mg (white), Day 1, fasted
[4] = 750 mg, G/750/250 mg (Japanese), Day 1, fasted
[5] = F/375/125 mg (Japanese), Day 5, fasted
[6] = G/750/250 mg (Japanese), Day 5, fasted
[7] = H/375/125 mg (white), Day 5, fasted

Cn1cnc(Cn2c(=O)[nH]/c(=N\c3cc4cn(C)nc4cc3Cl)n(Cc3cc(F)c(F)cc3F)c2=O)n1 [Ensitrelvir, ensitrelvir fumaric acid]
GLS mean ratio (90% CI) of AUC0-τ (white/Japanese) ([1]; day 1): 0.7241 (0.6517–0.8046) | GLS mean ratio (90% CI) of Cmax (white/Japanese) ([1]; day 1): 0.7699 (0.6738–0.8796) | GLS mean ratio (90% CI) of AUC0-τ (white/Japanese) ([1]; day 5): 0.8645 (0.7740–0.9656) | GLS mean ratio (90% CI) of Cmax (white/Japanese) ([1]; day 5): 0.8651 (0.7774–0.9627) | GLS mean ratio (90% CI) of AUC0-τ, cohort G [750/250 mg] versus F [375/125 mg] ([1]; day 1): 1.6893 (1.4492–1.9692) | GLS mean ratio (90% CI) of Cmax, cohort G [750/250 mg] versus F [375/125 mg] ([1]; day 1): 1.5185 (1.2747–1.8089) | GLS mean ratio (90% CI) of AUC0-τ, cohort G [750/250 mg] versus F [375/125 mg] ([1]; day 5): 2.2387 (1.9942–2.5132) | GLS mean ratio (90% CI) of Cmax, cohort G [750/250 mg] versus F [375/125 mg] ([1]; day 5): 2.1781 (1.9460–2.4379) | Cmax [1, 2]: 29500 ng/mL | AUC [1, 2]: 484 µg·h/mL | Tmax [1, 2]: 1.5 h | Cmax [1, 3]: 22700 ng/mL | AUC [1, 3]: 351 µg·h/mL | Tmax [1, 3]: 1.75 h | Cmax [1, 4]: 44800 ng/mL | AUC [1, 4]: 818 µg·h/mL | Tmax [1, 4]: 3 h | Cmax [1, 5]: 30400 ng/mL | AUC [1, 5]: 597 µg·h/mL | Tmax [1, 5]: 2 h | Cmax [1, 6]: 66300 ng/mL | AUC [1, 6]: 1340 µg·h/mL | Tmax [1, 6]: 2.5 h | Cmax [1, 7]: 26300 ng/mL | AUC [1, 7]: 516 µg·h/mL | Tmax [1, 7]: 1.5 h | antiviral activity in mice (SARS-CoV-2): dose-dependent antiviral activity | CYP3A inhibition classification (CYP3A): strong CYP3A inhibitor
